Experimental data reported in patent publication US20220332764A1, “T CELL EPITOPES OF HCMV AND USES OF THEREOF” (EBERHARD KARLS UNIVERSITÄT TÜBINGEN, priority 2019, published 2022).

System: PBMCs of healthy HCMV-seropositive donors
Test: IFNγ ELISpot after 12 day stimulation (memory T-cell response)
Type: cell-based, human
Settings: for % Positive donors (after 12 days of stimulation): IFNγ ELISpot, HLA-matched seropositive donors; for Positive donors as tested: positive / tested HLA-matched seropositive donors, positive: >10 spots/well and at least 3-fold negative control
Text: PHA was used as positive control.

Row | Sequence | % Positive donors (after 12 days of stimulation) | Positive donors as tested
1 | AEPNFPKNVW (listed as Human cytomegalovirus) [SEQ ID NO: 46] | 14.3% | 2/14
2 | ALFNQLVFTA (listed as Human cytomegalovirus) [SEQ ID NO: 16] | 13.3% | 2/15
3 | ALLGRLYFI (listed as Human cytomegalovirus) [SEQ ID NO: 19] | 6.7% | 1/15
4 | ALSPSTSKV (listed as Human cytomegalovirus) [SEQ ID NO: 9] | 23.5% | 4/17
5 | ALYPEYIYTV (listed as Human cytomegalovirus) [SEQ ID NO: 14] | 16.7% | 3/18
6 | APFGRVSV (listed as Human cytomegalovirus) [SEQ ID NO: 35] | 20.0% | 3/15
7 | APNYRQVEL (listed as Human cytomegalovirus) [SEQ ID NO: 37] | 16.7% | 2/12
8 | APYLRDTL (listed as Human cytomegalovirus) [SEQ ID NO: 39] | 5.3% | 1/19
9 | DLDFGDLLKY (listed as Human cytomegalovirus) [SEQ ID NO: 65] | 12.5% | 2/16
10 | EEATALGREL (listed as Human cytomegalovirus) [SEQ ID NO: 47] | 10.0% | 1/10
11 | EEQDYRALL (listed as Human cytomegalovirus) [SEQ ID NO: 44] | 33.3% | 4/12
12 | FFPKLQGNY (listed as Human cytomegalovirus) [SEQ ID NO: 23] | 16.7% | 2/12
13 | FISSKHTL (listed as Human cytomegalovirus) [SEQ ID NO: 84] | 21.4% | 3/14
14 | FPAHDWPEV (listed as Human cytomegalovirus) [SEQ ID NO: 94] | 13.3% | 2/15
15 | FPDATVPATV (listed as Human cytomegalovirus) [SEQ ID NO: 96] | 6.7% | 1/15
16 | FTDNVRFSV (listed as Human cytomegalovirus) [SEQ ID NO: 17] | 7.8% | 1/13
17 | FVEGPGFMRY (listed as Human cytomegalovirus) [SEQ ID NO: 56] | 35.7% | 5/14
18 | GLDQYLESV (listed as Human cytomegalovirus) [SEQ ID NO: 18] | 7.8% | 1/13
19 | GLLAHIPAL (listed as Human cytomegalovirus) [SEQ ID NO: 13] |  | 2/11
20 | GLNERLLSV (listed as Human cytomegalovirus) [SEQ ID NO: 15] | 15.0% | 3/20

Row | Sequence | % Positive donors (after 12 days of stimulation) | Positive donors as tested
21 | GSDALPAGLY (listed as Human cytomegalovirus) [SEQ ID NO: 60] | 18.8% | 3/16
22 | GVSSVTLLK (listed as Human cytomegalovirus) [SEQ ID NO: 73] | 35.7% | 5/14
23 | HLKLRPATF (listed as Human cytomegalovirus) [SEQ ID NO: 83] | 23.1% | 3/13
24 | IAIPHFMVV (listed as Human cytomegalovirus) [SEQ ID NO: 91] | 33.3% | 5/15
25 | IPDYRSVSL (listed as Human cytomegalovirus) [SEQ ID NO: 34] | 22.2% | 4/18
26 | IPHNWFLQV (listed as Human cytomegalovirus) [SEQ ID NO: 92] | 33.3% | 5/15
27 | IPMTFVDRDSL (listed as Human cytomegalovirus) [SEQ ID NO: 30] | 35.7% | 5/14
28 | IPPPQIPFV (listed as Human cytomegalovirus) [SEQ ID NO: 90] | 40.0% | 6/15
29 | IPVERQAL (listed as Human cytomegalovirus) [SEQ ID NO: 36] | 16.7% | 2/12
30 | ISENGNLQVTY (listed as Human cytomegalovirus) [SEQ ID NO: 63] | 15.0% | 3/20
31 | KLGGALQAK (listed as Human cytomegalovirus) [SEQ ID NO: 70] | 40.0% | 6/15
32 | LENGVTHRF (listed as Human cytomegalovirus) [SEQ ID NO: 49] | 7.1% | 1/14
33 | LLDELGAVFGY (listed as Human cytomegalovirus) [SEQ ID NO: 62] | 15.4% | 2/13
34 | LPNDHHYAL (listed as Human cytomegalovirus) [SEQ ID NO: 38] | 5.9% | 1/17
35 | LPYLSAERTV (listed as Human cytomegalovirus) [SEQ ID NO: 97] | 6.7% | 1/15
36 | LYVGQFLAY (listed as Human cytomegalovirus) [SEQ ID NO: 21] | 25.0% | 3/12
37 | MLRLLFTL (listed as Human cytomegalovirus) [SEQ ID NO: 86] | 7.1% | 1/14
38 | MPVTHPPEV (listed as Human cytomegalovirus) [SEQ ID NO: 95] | 13.3% | 2/15
39 | NYNEQHYRY (listed as Human cytomegalovirus) [SEQ ID NO: 20] |  | 5/13
40 | QLRSVIRAL (listed as Human cytomegalovirus) [SEQ ID NO: 85] | 14.3% | 2/14

Row | Sequence | % Positive donors (after 12 days of stimulation) | Positive donors as tested
41 | RENAGVALY (listed as Human cytomegalovirus) [SEQ ID NO: 45] | 19.1% | 4/21
42 | REQAAIPQIY (listed as Human cytomegalovirus) [SEQ ID NO: 50] | 6.3% | 1/16
43 | RLADVLIKR (listed as Human cytomegalovirus) [SEQ ID NO: 77] | 15.4% | 2/13
44 | RLFDLPVYC (listed as Human cytomegalovirus) [SEQ ID NO: 6] | 41.7% | 5/12
45 | RSVRLPYMYK (listed as Human cytomegalovirus) [SEQ ID NO: 78] | 13.3% | 2/15
46 | RTFAGTLSR (listed as Human cytomegalovirus) [SEQ ID NO: 76] | 21.4% | 3/14
47 | RVDPNLRNR (listed as Human cytomegalovirus) [SEQ ID NO: 74] | 33.3% | 5/15
48 | RVSQPSLIL (listed as Human cytomegalovirus) [SEQ ID NO: 32] | 26.7% | 4/15
49 | RVYAYDTREK (listed as Human cytomegalovirus) [SEQ ID NO: 72] | 36.4% | 4/11
50 | SESLVAKRY (listed as Human cytomegalovirus) [SEQ ID NO: 48] | 10.0% | 1/10
51 | SFFPKLQGNY (listed as Human cytomegalovirus) [SEQ ID NO: 22] | 22.2% | 2/9
52 | SLYEANPEL (listed as Human cytomegalovirus) [SEQ ID NO: 10] | 23.5% | 4/17
53 | SPHPPTSVFL (listed as Human cytomegalovirus) [SEQ ID NO: 33] | 25.0% | 3/12
54 | SVRLPYMYK (listed as Human cytomegalovirus) [SEQ ID NO: 75] | 25.0% | 4/16
55 | SVSSAPLNK (listed as Human cytomegalovirus) [SEQ ID NO: 79] | 7.1% | 1/14
56 | TILDKILNV (listed as Human cytomegalovirus) [SEQ ID NO: 11] | 20.0% | 4/20
57 | TLINGVWVV (listed as Human cytomegalovirus) [SEQ ID NO: 12] |  | 2/11
58 | TPLLKRLPL (listed as Human cytomegalovirus) [SEQ ID NO: 82] | 28.6% | 4/14
59 | TSETHFGNY (listed as Human cytomegalovirus) [SEQ ID NO: 59] | 20.0% | 3/15
60 | VMKFKETSF (listed as Human cytomegalovirus) [SEQ ID NO: 81] |  | 5/13
